# Measured values taken from publication PMC12005767 (Advanced Science, 2025).
# Read-outs that look alike come from different tables or passages of the source.
# How the values were obtained:
# HDAC9 = molecular target: T1, HDAC9 (Homo sapiens, UniProt Q9UKV0); assay: In vitro HDACs inhibition fluorescence assay, HDAC9; assay type: biochemical; details: mean ± SEM
# T1 construct: purchased BPS Bioscience
# Experimental: (§1) In Vitro HDACs Inhibition Fluorescence Assay: For the inhibitory activity against HDAC1‐10, enzymes were also procured from BPS Bioscience. The in vitro […] inhibition assays were conducted following the established method described previously.^[ [45] ^] The working concentrations of HDAC1‐10 were 4 × 10^−9 M. The fluorogenic substrate of HDAC1, 2, 3, and 6 was Boc‐Lys (acetyl)‐AMC, and the substrate of HDAC4, 5, 7, 8, 9, and 10 was Boc‐Lys (trifluoroacetyl) AMC. The developer solution consists of 30 mg mL^−1 trypsin and 5 × 10^−6 M TSA. A standing period of 30 min was sufficient before assessing the fluorescence intensity.
# [1] = tested on: MASLD mice (60 kcal% fat diet); assay: High fat diet-induced MASLD model in mice; assay type: in vivo, C57BL/6J mice
# Experimental: For pharmacology experiments, mice were divided into five groups (n = 8 per group): control group (C), B6 10 mg kg^−1 group [B6 (10)], high fat diet group (H), HFD + 5 mg kg^−1 B6 group [HB6 (5)], and HFD + 10 mg kg^−1 B6 group [HB6 (10). The 60 kcal% fat diet (MD12033) used for establishing the MASLD model was purchased from Medicience (Yangzhou, China). The C and B6 (10) groups were fed a chow diet for 12 weeks, followed by gavage administration of vehicle and 10 mg kg^−1 B6 for the subsequent four weeks, respectively. The H, HB6 (5) and HB6 (10) groups were fed a 60 kcal% fat diet for 12 weeks, followed by gavage administration of vehicle, 5 mg kg^−1 B6 and 10 mg kg^−1 B6 for the subsequent four weeks, respectively.
# TG, FFA, and TC kits were purchased from Solarbio (Beijing, China). The liver tissues from mice were homogenized and processed according to the instructions. […]
# ALT, AST, ALP, TG, NEFA, CHO, LDL‐C, and HDL‐C were assessed using a Hitachi 7020 automatic analyzer (Hitachi, Tokyo, Japan). […]
# Food intake, locomotor VO2, VCO2, and heat production were measured by the TSE system, and RER were calculated using the manufacturer's system software.
# Western blot was carried out as described.^[ [49] ^] In brief, samples were lysed with a lysis buffer. The same quantity of total proteins (40–60 µg) from each sample was separated on SDS‐PAGE followed by transfer onto a nitrocellulose filter membrane and incubation with the indicated antibodies. After incubation with secondary antibodies, the protein bands were visualized using a chemiluminescence imaging system. All samples in the same group were processed simultaneously.
# Cells and liver tissues were extracted for total RNA. A reverse transcription kit was used to synthesize cDNA. qRT‐PCR was performed with the primers listed in Table S1 (Supporting Information) using the SYBR green PCR master mix. The coding sequence of the target gene was found in NCBI, and Primer3 (v.0.4.0) was used to design amplification primers. The results were normalized by β‐actin in the corresponding sample.
# HDAC2 = molecular target: T2, HDAC2 (Homo sapiens, UniProt Q92769); assay: In vitro HDACs inhibition fluorescence assay, HDAC2; assay type: biochemical; details: mean ± SEM
# T2 construct: purchased BPS Bioscience
# T2 sequence (Q92769 whole entry): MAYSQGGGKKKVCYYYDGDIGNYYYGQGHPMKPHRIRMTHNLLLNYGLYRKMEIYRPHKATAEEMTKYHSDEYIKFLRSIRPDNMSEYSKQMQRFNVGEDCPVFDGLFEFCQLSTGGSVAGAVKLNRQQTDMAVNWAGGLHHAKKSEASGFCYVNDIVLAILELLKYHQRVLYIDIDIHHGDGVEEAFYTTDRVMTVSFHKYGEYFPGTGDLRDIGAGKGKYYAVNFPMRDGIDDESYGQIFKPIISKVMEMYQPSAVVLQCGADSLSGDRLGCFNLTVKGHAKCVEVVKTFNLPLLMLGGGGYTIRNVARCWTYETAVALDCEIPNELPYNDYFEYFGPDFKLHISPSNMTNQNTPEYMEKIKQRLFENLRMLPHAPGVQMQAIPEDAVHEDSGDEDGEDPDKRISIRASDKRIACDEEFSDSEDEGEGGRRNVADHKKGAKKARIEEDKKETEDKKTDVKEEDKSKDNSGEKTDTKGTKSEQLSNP
# Experimental: as §1
# [2] = Pharmacokinetic study in ICR mice (i.v. and p.o.); assay type: in vivo; details: male, mouse, plasma; for MRT inf: read-out: MRT0-inf
# Experimental: Pharmacokinetics study was performed by Medicilon Preclinical Research (Shanghai) LLC. Male ICR mice, which were purchased from Sino‐British SIPPR Lab Animal Ltd., Shanghai (25–30 g, 14 weeks of age), were fasted overnight before administration and resumed food 6 h after initial plasma sampling. Compound was dissolved in solution containing 10% DMAC, 40% PEG‐400, and 50% water and was delivered to three animals by intravenous bolus injection (i.v.) and oral gavage (p.o.) at a dose of 5 and 20 mg kg^−1 with a volume of 5 and 10 mL kg^−1, respectively. Blood samples were collected at the following time points: 5, 15, 30 min and 1, 2, 4, 6, 8, and 24 h post dose administration. The blood samples were taken via submandibular vein, 30 µL/time point.
# Sample were placed in tubes containing K2‐EDTA and stored on ice until centrifuged. The blood samples were centrifuged at 6800 g for 6 min at 2–8 °C within 1 h after collected and stored frozen at ≈−80 °C. A 20 µL plasma sample was treated with 400 µL of methanol containing 10 ng mL^−1 IS to precipitate the protein. The mix was then vortexed for a minute and centrifuged at 18 000 g for 7 min. The resulting supernatant (400 µL) was transferred to a 96‐well plate, and an injection of 1 µL of this supernatant was used for the LC‐MS/MS analysis. The animal protocols used in this study were approved by the Preclinical R&D Unit of Medicilon Institutional Animal Care and Use Committee (IACUC) (26030‐21002) and operated in accordance with the Guide for the Care and Use of Laboratory Animals published by the National Institutes of Health (NIH).
# HDAC8 = molecular target: T3, HDAC8 (Homo sapiens, UniProt Q9BY41); assay: In vitro HDACs inhibition fluorescence assay, HDAC8; assay type: biochemical
# T3 construct: purchased BPS Bioscience
# T3 sequence (Q9BY41 whole entry): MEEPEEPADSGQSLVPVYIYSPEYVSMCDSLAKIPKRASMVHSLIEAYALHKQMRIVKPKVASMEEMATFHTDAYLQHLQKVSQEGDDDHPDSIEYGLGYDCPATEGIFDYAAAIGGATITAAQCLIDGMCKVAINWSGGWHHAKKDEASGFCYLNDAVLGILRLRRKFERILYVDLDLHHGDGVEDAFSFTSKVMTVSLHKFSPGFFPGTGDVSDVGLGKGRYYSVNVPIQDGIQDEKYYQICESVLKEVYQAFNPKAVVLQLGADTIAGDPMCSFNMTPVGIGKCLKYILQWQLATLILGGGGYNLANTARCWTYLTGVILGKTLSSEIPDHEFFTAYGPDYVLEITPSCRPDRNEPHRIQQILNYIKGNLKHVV
# Experimental: as §1
# HDAC4 = molecular target: T4, HDAC4 (Homo sapiens, UniProt P56524); assay: In vitro HDACs inhibition fluorescence assay, HDAC4; assay type: biochemical; details: mean ± SEM
# T4 construct: purchased BPS Bioscience
# T4 sequence (P56524 whole entry): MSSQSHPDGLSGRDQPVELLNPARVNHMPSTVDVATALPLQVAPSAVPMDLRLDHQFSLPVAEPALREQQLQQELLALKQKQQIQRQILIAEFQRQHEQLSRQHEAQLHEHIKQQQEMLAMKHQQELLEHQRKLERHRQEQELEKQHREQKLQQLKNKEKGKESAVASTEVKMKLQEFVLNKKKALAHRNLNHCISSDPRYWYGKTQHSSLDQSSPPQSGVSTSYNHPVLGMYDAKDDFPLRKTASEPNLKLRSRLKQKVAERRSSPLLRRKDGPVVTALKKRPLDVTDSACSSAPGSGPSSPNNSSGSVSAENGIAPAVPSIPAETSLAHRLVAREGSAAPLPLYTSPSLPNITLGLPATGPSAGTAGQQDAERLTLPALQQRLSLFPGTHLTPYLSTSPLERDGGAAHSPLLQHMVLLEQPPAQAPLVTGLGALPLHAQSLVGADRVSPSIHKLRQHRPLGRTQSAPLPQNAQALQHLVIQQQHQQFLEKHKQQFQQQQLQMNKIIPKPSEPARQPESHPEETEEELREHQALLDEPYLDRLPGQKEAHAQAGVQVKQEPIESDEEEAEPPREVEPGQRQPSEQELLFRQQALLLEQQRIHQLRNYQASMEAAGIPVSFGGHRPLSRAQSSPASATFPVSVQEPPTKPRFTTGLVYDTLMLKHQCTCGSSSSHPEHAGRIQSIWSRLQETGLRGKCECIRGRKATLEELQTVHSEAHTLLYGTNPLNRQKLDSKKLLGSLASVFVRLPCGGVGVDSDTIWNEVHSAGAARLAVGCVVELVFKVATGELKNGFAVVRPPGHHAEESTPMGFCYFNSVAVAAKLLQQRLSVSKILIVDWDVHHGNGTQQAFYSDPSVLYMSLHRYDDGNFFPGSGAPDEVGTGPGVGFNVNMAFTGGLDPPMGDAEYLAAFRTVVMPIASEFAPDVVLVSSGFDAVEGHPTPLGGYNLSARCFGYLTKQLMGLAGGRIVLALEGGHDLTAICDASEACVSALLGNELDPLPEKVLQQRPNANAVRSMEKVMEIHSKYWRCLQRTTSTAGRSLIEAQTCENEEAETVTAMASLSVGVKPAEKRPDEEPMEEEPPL
# Experimental: as §1
# AML12 cells = assay: Mitochondrial activity (Mito-Tracker, Seahorse OCR) in FFA-treated AML12 cells; assay type: cell-based
# HDAC10 = molecular target: T5, HDAC10 (Homo sapiens, UniProt Q969S8); assay: In vitro HDACs inhibition fluorescence assay, HDAC10; assay type: biochemical; details: mean ± SEM
# T5 construct: purchased BPS Bioscience
# T5 sequence (Q969S8 whole entry): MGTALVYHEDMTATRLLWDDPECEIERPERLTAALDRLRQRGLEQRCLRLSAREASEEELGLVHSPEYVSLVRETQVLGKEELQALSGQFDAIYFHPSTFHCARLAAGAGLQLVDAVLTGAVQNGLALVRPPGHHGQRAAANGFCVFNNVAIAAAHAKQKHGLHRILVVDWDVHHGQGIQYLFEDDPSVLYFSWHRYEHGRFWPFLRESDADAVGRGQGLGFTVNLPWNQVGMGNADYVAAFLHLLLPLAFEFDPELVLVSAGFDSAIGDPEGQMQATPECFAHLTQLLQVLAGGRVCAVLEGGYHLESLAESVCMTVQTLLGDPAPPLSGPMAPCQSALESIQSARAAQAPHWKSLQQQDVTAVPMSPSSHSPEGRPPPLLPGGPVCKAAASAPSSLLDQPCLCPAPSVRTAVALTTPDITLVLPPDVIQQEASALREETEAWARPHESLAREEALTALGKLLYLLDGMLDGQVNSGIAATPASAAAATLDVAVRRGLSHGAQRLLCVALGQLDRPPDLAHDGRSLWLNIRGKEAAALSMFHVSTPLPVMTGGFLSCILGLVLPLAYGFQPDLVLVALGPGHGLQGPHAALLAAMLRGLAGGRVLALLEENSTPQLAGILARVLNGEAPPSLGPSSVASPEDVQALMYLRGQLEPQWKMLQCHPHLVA
# Experimental: as §1
# ICR mice = assay: Subacute toxicity study in ICR mice; assay type: in vivo
# Experimental: For evaluation of subacute toxicity, ICR mice were divided into two groups (n = 8 per group (4M, 4F)). The B6 was prepared in vehicle (10% DMSO and 90% 0.5% HPMC aqueous solution) to administer once daily, by oral gavage for 30 d in the treatment groups. To the control groups, vehicle was administered orally. The animals were monitored for clinical and behavioral symptoms such as body weight, diarrhea, immobility, and mortality during the first day and thereafter for 30 d.
# [3] = ICR, po, 20 mg/kg, p.o. at 20 mg/kg
# [4] = 50 mg kg^−1 p.o. daily for 30 d, vs control group
# T1 sequence (Q9UKV0 whole entry): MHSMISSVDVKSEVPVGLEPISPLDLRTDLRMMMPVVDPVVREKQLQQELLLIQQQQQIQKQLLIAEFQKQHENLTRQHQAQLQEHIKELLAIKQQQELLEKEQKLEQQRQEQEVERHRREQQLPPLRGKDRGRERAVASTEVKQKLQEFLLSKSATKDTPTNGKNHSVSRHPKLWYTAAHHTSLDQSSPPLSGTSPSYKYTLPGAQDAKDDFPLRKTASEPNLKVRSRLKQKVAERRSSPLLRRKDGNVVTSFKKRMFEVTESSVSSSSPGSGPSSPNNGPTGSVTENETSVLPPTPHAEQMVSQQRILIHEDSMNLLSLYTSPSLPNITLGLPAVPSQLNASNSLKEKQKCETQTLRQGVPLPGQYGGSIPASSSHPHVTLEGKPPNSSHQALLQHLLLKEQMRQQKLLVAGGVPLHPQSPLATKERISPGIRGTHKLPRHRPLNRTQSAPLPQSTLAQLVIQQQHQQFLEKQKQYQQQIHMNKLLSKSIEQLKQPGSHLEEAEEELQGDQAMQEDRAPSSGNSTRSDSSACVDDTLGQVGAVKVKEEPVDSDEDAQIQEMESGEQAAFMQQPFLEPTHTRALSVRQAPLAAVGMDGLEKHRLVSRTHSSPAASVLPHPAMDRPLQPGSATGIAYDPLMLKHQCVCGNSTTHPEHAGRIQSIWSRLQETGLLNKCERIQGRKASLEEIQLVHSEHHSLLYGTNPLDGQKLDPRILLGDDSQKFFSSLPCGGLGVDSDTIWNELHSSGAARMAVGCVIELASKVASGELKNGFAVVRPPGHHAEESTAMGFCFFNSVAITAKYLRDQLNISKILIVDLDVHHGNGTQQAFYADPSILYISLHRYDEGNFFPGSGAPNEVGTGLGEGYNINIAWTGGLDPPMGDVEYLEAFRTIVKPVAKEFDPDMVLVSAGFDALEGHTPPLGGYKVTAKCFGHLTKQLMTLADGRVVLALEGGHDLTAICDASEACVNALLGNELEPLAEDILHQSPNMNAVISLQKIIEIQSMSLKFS
smiles,measurement,setting,value
CCCCCOCCCCCNNC(=O)c1ccc(CNC(=O)c2ccccc2)cc1 [B6],IC50,HDAC9,> 10 µM
same,"body weight, chow diet (C group vs B6 (10) group)","[1]; 10 mg kg^−1 p.o., chow diet",no significant differences in body weight
same,body weight of high fat diet mice,"[1]; 5 or 10 mg kg^−1 p.o., final 4 weeks, dose-dependent",reduction in body weight
same,"blood lipids NEFA, CHO, LDL-C",[1]; HFD mice,reduce the elevated levels of blood lipids
same,glucose tolerance test and insulin tolerance test,[1]; HFD mice,improved glucose tolerance and insulin resistance
same,phosphorylation of AMPKα at Thr172 in mouse liver,[1]; HFD mice,restores the phosphorylation level
same,"serum ALT, AST and ALP (liver damage)",[1]; HFD mice,alleviate liver damage
same,serum HDL-C,[1]; HFD mice,no significant effect
same,"liver size and weight, body fat mass","[1]; HFD mice, 5 or 10 mg kg^−1 p.o.",effectively controlled
same,"hepatic lipid content (TG, FFA, TC)","[1]; HFD mice, 5 or 10 mg kg^−1 p.o., dose-dependent",reduction in hepatic lipid content
same,"O2 consumption (VO2), CO2 production (VCO2) and heat","[1]; HFD mice, compared to H group",increase
same,"liver protein and mRNA levels of CPT1A, PGC1α and PPARα","[1]; HFD mice, compared to H group",restored
same,respiratory exchange ratio (RER),"[1]; HFD mice, metabolic cages",slight increase in RER value
same,"liver protein and mRNA expression of SREBP1c, FASN and SCD1","[1]; HFD mice, dose-dependent",downregulation
same,food intake of mice,"[1]; mouse, in vivo",no effect on food intake
same,IC50,HDAC2,> 10 µM
same,AUC(0-inf),[2]; [3],3480 ng·h/mL
same,Cmax,[2]; [3],2610 ng/mL
same,half-life,"[2]; iv, i.v. at 5 mg/kg",228 min
same,clearance,"[2]; iv, i.v. at 5 mg/kg",39.5 ± 13.5 mL/min/kg
same,MRT inf,"[2]; iv, i.v. at 5 mg/kg",0.23 ± 0.02 h
same,bioavailability,"[2]; oral, p.o. at 20 mg/kg vs i.v. at 5 mg/kg, read-out: oral bioavailability (F%)",34.5%
same,MRT inf,"[2]; po, p.o. at 20 mg/kg",2.6 ± 0.8 h
same,half-life,"[2]; po, p.o. at 20 mg/kg",138 min
same,IC50,HDAC8,5 µM
same,IC50,HDAC8; mean ± SEM,4.76 ± 0.159 µM
same,IC50,HDAC4,> 10 µM
same,FFA-inhibited mitochondrial activity (Mito-Tracker staining),AML12 cells,ameliorated
same,"mitochondrial stress test (OCR, basal and maximal respiration)",AML12 cells; FFA,partially restored mitochondrial activity
same,IC50,HDAC10,> 10 µM
same,overall health and behavior,"ICR mice; 50 mg kg^−1 p.o. daily for 30 d, ICR mice",no signs of toxicity
same,body weight of male and female mice,ICR mice; [4],did not induce any significant abnormal changes
same,"histopathological evaluations of liver, kidneys, heart, spleen and lungs",ICR mice; [4],no significant differences
same,therapeutic window,ICR mice; 50 mg kg^−1 vs effective dose 5 mg kg^−1,at least tenfold
